SMILES strings stand for the structures. Structures can show the parent of a compound that is named as a salt.

Experiment [1] addresses T1, S1P1 (Homo sapiens, UniProt P21453).
T1 construct: expressed in transfected cells
As to the kind of experiment: FLIPR calcium assay, cells expressing S1P1 and a G-protein. It is filed as cell-based. The conditions noted are these: fluo-4 calcium signal compared to sphingosine 1-phosphate. From the text: (§1) Novel compounds having this general structure were synthesized and tested for sphingosine 1-phosphate receptor (S1P) activity using the FLIPR assay. Cells expressing the receptor of interest (S1P1, S1P2 or S1P3) and a G-protein (Gqi5 or G16) are loaded with fluo-4, a calcium sensitive dye. After removal of excess dye by washing, the cells are placed in the FLIPR TETRA instrument. Baseline fluorescence readings are taken prior to addition the compound to be tested. Agonists will trigger the receptor to interact with the G-protein, leading to an increase in intracellular calcium. The increase in intracellular calcium causes an increase in the fluorescence of the cells, due to the presence of fluo-4. This fluorescence increase is recorded by the FLIPR TETRA. After the calcium transient signal has decreased towards baseline, the standard agonist sphingosine 1-phosphate is added. If the test compound is an antagonist, an initial calcium signal will not be generated and the antagonist will prevent the generation of a calcium signal from sphingosine 1-phosphate. The level of fluorescence is compared to that of sphingosine 1-phosphate, and the EC50 or IC50 of the compound determined by curve fitting.

Experiment [2] addresses T2, S1P3 (Homo sapiens, UniProt Q99500).
T2 construct: expressed in transfected cells
The experiment is described as follows: FLIPR calcium assay, cells expressing S1P3 and a G-protein. The conditions noted are these: for EC50: fluo-4 calcium signal compared to sphingosine 1-phosphate, antagonist mode; for FLIPR (% Antagonism) S1P3: value in parentheses below the EC50, antagonism of sphingosine 1-phosphate signal. It is filed as cell-based.
From the text: as §1

In experiment [3] the target is T3, S1P2 (Homo sapiens, UniProt O95136).
T3 construct: expressed in transfected cells
The experiment is described as follows: FLIPR calcium assay, cells expressing S1P2 and a G-protein. It is filed as cell-based. The conditions noted are these: fluo-4 calcium signal compared to sphingosine 1-phosphate.
From the text: as §1

In experiment [4] the test system is perfused porcine eyes. The conditions noted are these: IOVS 45, 2263, 2004; cited from earlier work.

T2 sequence (Q99500 whole entry, species assumed): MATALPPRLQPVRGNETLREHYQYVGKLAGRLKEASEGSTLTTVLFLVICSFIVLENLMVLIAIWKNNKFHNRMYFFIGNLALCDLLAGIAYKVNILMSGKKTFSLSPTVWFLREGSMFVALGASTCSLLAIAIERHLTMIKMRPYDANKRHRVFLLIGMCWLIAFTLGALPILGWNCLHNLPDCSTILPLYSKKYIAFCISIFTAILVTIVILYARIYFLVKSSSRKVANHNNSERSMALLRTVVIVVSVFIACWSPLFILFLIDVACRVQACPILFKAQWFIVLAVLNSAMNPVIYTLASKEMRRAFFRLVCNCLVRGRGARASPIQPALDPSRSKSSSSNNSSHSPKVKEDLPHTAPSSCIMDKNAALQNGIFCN
T3 sequence (O95136 whole entry, species assumed): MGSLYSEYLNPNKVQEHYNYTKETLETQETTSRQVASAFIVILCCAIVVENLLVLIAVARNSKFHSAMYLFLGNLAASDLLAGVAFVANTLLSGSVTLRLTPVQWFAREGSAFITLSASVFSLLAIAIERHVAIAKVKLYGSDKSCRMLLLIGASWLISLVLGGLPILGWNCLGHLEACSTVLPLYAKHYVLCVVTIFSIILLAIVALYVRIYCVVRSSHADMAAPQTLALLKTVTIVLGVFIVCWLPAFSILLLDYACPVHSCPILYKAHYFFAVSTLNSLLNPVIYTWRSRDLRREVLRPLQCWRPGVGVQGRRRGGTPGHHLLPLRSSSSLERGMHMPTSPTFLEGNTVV
T1 sequence (P21453 whole entry, species assumed): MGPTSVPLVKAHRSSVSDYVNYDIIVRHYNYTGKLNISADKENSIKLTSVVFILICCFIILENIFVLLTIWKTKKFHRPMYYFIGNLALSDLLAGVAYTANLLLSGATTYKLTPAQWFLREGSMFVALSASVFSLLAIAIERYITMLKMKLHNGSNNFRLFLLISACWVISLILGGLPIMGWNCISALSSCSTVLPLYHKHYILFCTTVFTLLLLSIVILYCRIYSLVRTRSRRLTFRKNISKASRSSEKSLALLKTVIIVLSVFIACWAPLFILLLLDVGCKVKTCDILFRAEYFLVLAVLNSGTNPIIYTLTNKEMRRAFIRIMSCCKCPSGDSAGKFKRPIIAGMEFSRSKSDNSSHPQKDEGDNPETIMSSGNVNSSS

With `COc1ccc(OC(C(=O)Nc2ccc(Cl)cn2)c2ccc(Cl)cc2)cc1.Cl` (stereo not shown) [Example 3, 2-(4-chlorophenyl)-N-(5-chloropyridin-2-yl)-2-(4-methoxyphenoxy)acetamide hydrochloride], the 50% effective concentration (EC50) – broadly, the concentration giving half of the maximal effect – in experiment [1] was greater than 8300 nM; in experiment [2], 166 nM; in experiment [3], greater than 8300 nM. Besides, the “FLIPR (% Antagonism) S1P3” value in experiment [2] was “(98) %”.
Regarding `O=C(Nc1ccc(Br)cn1)C(Sc1ccc(Cl)c(Cl)c1)c1ccccc1` (stereo not shown) [Example 18, N-(5-bromopyridin-2-yl)-2-(3,4-dichlorophenylthio)-2-phenylacetamide], the EC50 in experiment [1] was greater than 8300 nM; in experiment [2], 133 nM; in experiment [3], greater than 8300 nM. For the same compound, the “FLIPR (% Antagonism) S1P3” value in experiment [2] was “(97) %”.
Take `Cc1ccc(SC(C(=O)Nc2ccc(Cl)cn2)c2ccc(Cl)cc2)cc1` (stereo not shown) [Example 17, 2-(4-chlorophenyl)-N-(5-chloropyridin-2-yl)-2-(p-tolylthio)acetamide hydrochloride]: the values for the EC50 in experiment [1], in experiment [2] and in experiment [3] were greater than 8300 nM, 322 nM and greater than 8300 nM, respectively. Also, in experiment [2], the “FLIPR (% Antagonism) S1P3” value is on record as “(99) %”.
For `CCCCCCCCCCCCC/C=C/[C@@H](O)[C@@H](N)COP(=O)(O)O` [Example S1P, sphingosine 1-phosphate], the “decrease of outflow facility” value in experiment [4] is recorded as greater than 30%.
Consider `O=C(Nc1ccc(Cl)cn1)C(Sc1ccc(Cl)cc1)c1ccc(Cl)cc1` (stereo not shown) [Example 23, 2-(4-chlorophenyl)-2-(4-chlorophenylthio)-N-(5-chloropyridin-2-yl)acetamide hydrochloride], for which the EC50 was greater than 8300 nM in experiment [1], 173 nM in experiment [2] and greater than 8300 nM in experiment [3]. In experiment [2], the “FLIPR (% Antagonism) S1P3” value was “(97) %”.
For the compound `Cc1ccc(OC(C(=O)Nc2ccc(Br)cn2)c2ccc(Cl)cc2)cc1.Cl` (stereo not shown) [Example 2, N-(5-bromopyridin-2-yl)-2-(4-chlorophenyl)-2-(p-tolyloxy)acetamide hydrochloride], the EC50 was greater than 8300 nM in experiment [1], 185 nM in experiment [2] and greater than 8300 nM in experiment [3]. The “FLIPR (% Antagonism) S1P3” value in experiment [2] is on record as “(100) %”.
As to `O=C(Nc1ccc(Br)cn1)C(Cc1ccccc1)c1ccccc1` (stereo not shown) [Example 30, N-(5-bromopyridin-2-yl)-2,3-diphenylpropanamide hydrochloride], the values for the half-maximal effective concentration (EC50) in experiment [1], in experiment [2] and in experiment [3] were greater than 8300 nM, 162 nM and greater than 8300 nM, respectively. Also, the “FLIPR (% Antagonism) S1P3” value in experiment [2] is given as “(100) %”.
As to `O=C(Nc1ccc(Br)cn1)C(Sc1cccc(Cl)c1)c1ccccc1` (stereo not shown) [Example 20, N-(5-bromopyridin-2-yl)-2-(3-chlorophenylthio)-2-phenylacetamide hydrochloride], the half-maximal effective concentration (EC50) is greater than 8300 nM in experiment [1], 166 nM in experiment [2] and greater than 8300 nM in experiment [3]. Further, the “FLIPR (% Antagonism) S1P3” value in experiment [2] is “(97) %”.
As for `O=C(Nc1ccc(Cl)cn1)C(Cc1ccccc1)c1ccccc1` (stereo not shown) [Example 29, N-(5-chloropyridin-2-yl)-2,3-diphenylpropanamide hydrochloride], the half-maximal effective concentration (EC50) in experiment [1] was greater than 8300 nM; in experiment [2], 198 nM; in experiment [3] it was greater than 8300 nM. Besides, the “FLIPR (% Antagonism) S1P3” value in experiment [2] is “(101) %”.
For `O=C(Nc1ccc(Cl)cn1)C(Sc1ccc(Cl)c(Cl)c1)c1ccccc1` (stereo not shown) [Example 19, N-(5-chloropyridin-2-yl)-2-(3,4-dichlorophenylthio)-2-phenylacetamide], the EC50 in experiment [1] is greater than 8300 nM; in experiment [2], 106 nM; in experiment [3], greater than 8300 nM. In addition, in experiment [2], the “FLIPR (% Antagonism) S1P3” value is “(97) %”.

Source of the values: patent US20120088800A1, “2-(SUBSTITUTED) (ARYLMETHYL, ARYLOXY and ARYLTHIO))-N-(SUBSTITUTED PYRIDIN-2-YL)-2-(SUBSTITUTED ARYL) COMPOUNDS AS SUBTYPE-SELECTIVE MODULATORS OF SPHINGOSINE-1-PHOSPHATE-3 (S1P3) RECEPTORS” (ALLERGAN, INC., priority 2009, published 2012).
